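A five-concentration, 48-hour dose response in 96-well plates underlies each endpoint, interpolated linearly between surrounding concentrations. Abbreviation: GI50, concentration required for 50% inhibition of growth. TGI is the concentration that stops growth completely.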
Columns and labels:
Experiment in all cases: DTP human tumour cell line panel, 48 h
UACC-62 melanoma = tested on: UACC-62 melanoma
T-47D breast = tested on: T-47D breast
M14 melanoma = tested on: M14 melanoma
A498 renal = tested on: A498 renal
OVCAR-4 ovarian = tested on: OVCAR-4 ovarian
HS 578T breast = tested on: HS 578T breast
786-0 renal = tested on: 786-0 renal
SF-295 CNS = tested on: SF-295 CNS
OVCAR-8 ovarian = tested on: OVCAR-8 ovarian
CCRF-CEM leukemia = tested on: CCRF-CEM leukemia
HCT-116 colon = tested on: HCT-116 colon
LOX IMVI melanoma = tested on: LOX IMVI melanoma
MDA-MB-435 = tested on: MDA-MB-435
PC-3 prostate = tested on: PC-3 prostate
KM12 colon = tested on: KM12 colon
K-562 leukemia = tested on: K-562 leukemia
HCT-15 colon = tested on: HCT-15 colon
NCI-H522 lung = tested on: NCI-H522 lung
HCC-2998 colon = tested on: HCC-2998 colon
HL-60(TB) leukemia = tested on: HL-60(TB) leukemia
OVCAR-5 ovarian = tested on: OVCAR-5 ovarian
SR leukemia = tested on: SR leukemia
EKVX NSCLC = tested on: EKVX NSCLC
HOP-62 NSCLC = tested on: HOP-62 NSCLC
SF-268 CNS = tested on: SF-268 CNS
CAKI-1 renal = tested on: CAKI-1 renal
MCF7 breast = tested on: MCF7 breast
TK-10 renal = tested on: TK-10 renal
IGROV1 ovarian = tested on: IGROV1 ovarian
RPMI-8226 leukemia = tested on: RPMI-8226 leukemia
SF-539 CNS = tested on: SF-539 CNS
BT-549 breast = tested on: BT-549 breast
UO-31 renal = tested on: UO-31 renal
RXF 393 renal = tested on: RXF 393 renal
MOLT-4 leukemia = tested on: MOLT-4 leukemia
NCI/ADR-RES ovarian = tested on: NCI/ADR-RES ovarian
SK-MEL-2 melanoma = tested on: SK-MEL-2 melanoma
SNB-75 CNS = tested on: SNB-75 CNS
NCI-H23 lung = tested on: NCI-H23 lung
SN12C renal = tested on: SN12C renal
OVCAR-3 ovarian = tested on: OVCAR-3 ovarian
NCI-H226 lung = tested on: NCI-H226 lung
MDA-MB-231 breast = tested on: MDA-MB-231 breast
HT29 colon = tested on: HT29 colon
ACHN renal = tested on: ACHN renal
SNB-19 CNS = tested on: SNB-19 CNS
SK-MEL-5 melanoma = tested on: SK-MEL-5 melanoma
SK-OV-3 ovarian = tested on: SK-OV-3 ovarian
SW-620 colon = tested on: SW-620 colon
HOP-92 NSCLC = tested on: HOP-92 NSCLC
A549 NSCLC = tested on: A549 NSCLC
DU-145 prostate = tested on: DU-145 prostate
U251 CNS = tested on: U251 CNS
SK-MEL-28 melanoma = tested on: SK-MEL-28 melanoma
MALME-3M melanoma = tested on: MALME-3M melanoma
NCI-H460 lung = tested on: NCI-H460 lung
UACC-257 melanoma = tested on: UACC-257 melanoma
COLO 205 colon = tested on: COLO 205 colon

## Cc1cc(C(NC(=O)CCCCCNc2cccc3c2C(=O)N(C2CCC(=O)NC2=O)C3=O)c2cccnc2)c(O)c2ncccc12 (configuration not stated)
UACC-62 melanoma
  GI50: 1.81 µM
  TGI: 6.35 µM
T-47D breast
  GI50: 0.0103 µM
  TGI: 5.12 µM
M14 melanoma
  GI50: 0.1 µM
  TGI: 4.99 µM
A498 renal
  GI50: 0.202 µM
  TGI: 6.52 µM
OVCAR-4 ovarian
  GI50: 0.0221 µM
  TGI: 0.325 µM
HS 578T breast
  GI50: 0.0184 µM
  TGI: 7.09 µM
786-0 renal
  GI50: 0.164 µM
  TGI: 14.7 µM
SF-295 CNS
  GI50: 0.291 µM
  TGI: 8.14 µM
OVCAR-8 ovarian
  GI50: < 0.0163 µM
  TGI: 8.33 µM
CCRF-CEM leukemia
  GI50: < 0.01 µM
  TGI: > 100 µM
HCT-116 colon
  GI50: 1.52 µM
  TGI: > 100 µM
LOX IMVI melanoma
  GI50: 0.856 µM
  TGI: 12.4 µM
MDA-MB-435
  GI50: 2.35 µM
  TGI: > 100 µM
PC-3 prostate
  GI50: 0.0207 µM
KM12 colon
  GI50: 0.199 µM
  TGI: 21.3 µM
K-562 leukemia
  GI50: 1.21 µM
  TGI: > 100 µM
HCT-15 colon
  GI50: 0.228 µM
  TGI: > 100 µM
NCI-H522 lung
  GI50: 0.639 µM
HCC-2998 colon
  GI50: 0.0264 µM
  TGI: 2.45 µM
HL-60(TB) leukemia
  GI50: < 0.0134 µM
  TGI: 0.0355 µM
OVCAR-5 ovarian
  GI50: 0.637 µM
  TGI: > 100 µM
SR leukemia
  GI50: 0.433 µM
  TGI: > 54.2 µM
EKVX NSCLC
  GI50: 0.809 µM
  TGI: > 22.5 µM
HOP-62 NSCLC
  GI50: 0.0214 µM
  TGI: 0.685 µM
SF-268 CNS
  GI50: 0.112 µM
  TGI: 18.8 µM
CAKI-1 renal
  GI50: 0.471 µM
  TGI: 16.7 µM
MCF7 breast
  GI50: 0.0625 µM
  TGI: 14 µM
TK-10 renal
  GI50: 0.413 µM
  TGI: > 100 µM
IGROV1 ovarian
  GI50: 0.0272 µM
  TGI: 3.8 µM
RPMI-8226 leukemia
  GI50: 1.35 µM
  TGI: > 100 µM
SF-539 CNS
  GI50: 0.933 µM
  TGI: 8.95 µM
BT-549 breast
  GI50: < 0.0128 µM
  TGI: 0.0392 µM
UO-31 renal
  GI50: 0.362 µM
  TGI: 34.4 µM
RXF 393 renal
  GI50: 0.221 µM
  TGI: 2.28 µM
MOLT-4 leukemia
  GI50: < 0.01 µM
  TGI: 0.156 µM
NCI/ADR-RES ovarian
  GI50: 13.4 µM
  TGI: > 100 µM
SK-MEL-2 melanoma
  GI50: 0.485 µM
  TGI: 11.4 µM
SNB-75 CNS
  GI50: 0.0208 µM
  TGI: 5.32 µM
NCI-H23 lung
  GI50: 1.8 µM
  TGI: 43.8 µM
SN12C renal
  GI50: 0.0501 µM
OVCAR-3 ovarian
  GI50: 0.252 µM
  TGI: 15.6 µM
NCI-H226 lung
  GI50: 0.0324 µM
  TGI: 0.961 µM
MDA-MB-231 breast
  GI50: 0.0136 µM
  TGI: 0.193 µM
HT29 colon
  GI50: 0.446 µM
  TGI: > 100 µM
ACHN renal
  GI50: 3.58 µM
  TGI: > 59.5 µM
SNB-19 CNS
  GI50: 0.273 µM
  TGI: > 100 µM
SK-MEL-5 melanoma
  GI50: 0.0525 µM
  TGI: 0.999 µM
SK-OV-3 ovarian
  GI50: 0.222 µM
  TGI: 3.92 µM
SW-620 colon
  GI50: 0.021 µM
  TGI: > 100 µM
HOP-92 NSCLC
  GI50: < 0.0121 µM
  TGI: 0.304 µM
A549 NSCLC
  GI50: 0.734 µM
  TGI: 28 µM
DU-145 prostate
  GI50: 1.92 µM
  TGI: > 100 µM
U251 CNS
  GI50: 0.641 µM
  TGI: > 100 µM
SK-MEL-28 melanoma
  GI50: 0.904 µM
  TGI: > 74.9 µM
MALME-3M melanoma
  GI50: < 0.01 µM
  TGI: 0.0224 µM
NCI-H460 lung
  GI50: 1.51 µM
  TGI: 28.1 µM
UACC-257 melanoma
  GI50: 2.09 µM
  TGI: > 27.6 µM
COLO 205 colon
  GI50: 0.0288 µM
  TGI: 1.67 µM

## COc1ccc([C@@H]2[C@@H](O)C(=O)N2c2cc(OC)c(OC)c(OC)c2)cc1
UACC-62 melanoma
  GI50: 0.0417 µM
  TGI: > 100 µM
T-47D breast
  GI50: 19 µM
  TGI: > 100 µM
M14 melanoma
  GI50: 0.0423 µM
  TGI: > 100 µM
A498 renal
  GI50: 11.3 µM
  TGI: > 88.7 µM
OVCAR-4 ovarian
  GI50: 5.86 µM
  TGI: > 100 µM
HS 578T breast
  GI50: 0.041 µM
  TGI: > 100 µM
786-0 renal
  GI50: 0.0916 µM
  TGI: > 100 µM
SF-295 CNS
  GI50: 0.0378 µM
  TGI: > 100 µM
OVCAR-8 ovarian
  GI50: 0.0376 µM
  TGI: > 100 µM
CCRF-CEM leukemia
  GI50: 0.0413 µM
HCT-116 colon
  GI50: 0.0386 µM
  TGI: > 100 µM
LOX IMVI melanoma
  GI50: 0.0473 µM
  TGI: > 100 µM
MDA-MB-435
  GI50: 0.0281 µM
  TGI: 0.0837 µM
PC-3 prostate
  GI50: 0.0856 µM
  TGI: > 100 µM
KM12 colon
  GI50: 0.0413 µM
  TGI: > 100 µM
K-562 leukemia
  GI50: 0.0339 µM
  TGI: > 100 µM
HCT-15 colon
  GI50: 0.0727 µM
  TGI: > 100 µM
NCI-H522 lung
  GI50: 0.0248 µM
  TGI: 0.0767 µM
HCC-2998 colon
  GI50: 0.0982 µM
  TGI: 10 µM
HL-60(TB) leukemia
  GI50: 0.0309 µM
  TGI: 0.126 µM
OVCAR-5 ovarian
  GI50: 0.0613 µM
  TGI: > 100 µM
SR leukemia
  GI50: 0.0343 µM
  TGI: > 100 µM
EKVX NSCLC
  GI50: 0.0799 µM
  TGI: > 100 µM
HOP-62 NSCLC
  GI50: 0.0758 µM
  TGI: > 100 µM
SF-268 CNS
  GI50: 0.214 µM
  TGI: > 100 µM
CAKI-1 renal
  GI50: 0.0486 µM
  TGI: > 33.8 µM
MCF7 breast
  GI50: 0.0351 µM
  TGI: > 100 µM
TK-10 renal
  GI50: 32.9 µM
  TGI: > 100 µM
IGROV1 ovarian
  GI50: 0.0577 µM
  TGI: > 100 µM
RPMI-8226 leukemia
  GI50: 0.0448 µM
  TGI: 5.61 µM
SF-539 CNS
  GI50: 0.0305 µM
  TGI: > 100 µM
BT-549 breast
  GI50: 0.0941 µM
  TGI: 2.43 µM
UO-31 renal
  GI50: 0.0659 µM
  TGI: > 100 µM
RXF 393 renal
  GI50: 0.026 µM
  TGI: > 100 µM
MOLT-4 leukemia
  GI50: 0.101 µM
  TGI: > 100 µM
NCI/ADR-RES ovarian
  GI50: 0.0725 µM
  TGI: > 100 µM
SK-MEL-2 melanoma
  GI50: 0.135 µM
  TGI: > 100 µM
SNB-75 CNS
  GI50: 0.0465 µM
  TGI: > 100 µM
NCI-H23 lung
  GI50: 0.063 µM
  TGI: > 100 µM
SN12C renal
  GI50: 0.124 µM
  TGI: > 100 µM
OVCAR-3 ovarian
  GI50: 0.0345 µM
  TGI: 0.327 µM
NCI-H226 lung
  GI50: 0.525 µM
  TGI: > 100 µM
MDA-MB-231 breast
  GI50: 0.0558 µM
  TGI: > 100 µM
HT29 colon
  GI50: 0.0329 µM
  TGI: 0.175 µM
ACHN renal
  GI50: 0.0723 µM
  TGI: > 100 µM
SNB-19 CNS
  GI50: 0.12 µM
  TGI: > 100 µM
SK-MEL-5 melanoma
  GI50: 0.0452 µM
  TGI: 0.232 µM
SK-OV-3 ovarian
  GI50: 0.147 µM
  TGI: > 57.1 µM
SW-620 colon
  GI50: 0.0504 µM
  TGI: > 100 µM
HOP-92 NSCLC
  GI50: > 44.6 µM
  TGI: > 100 µM
A549 NSCLC
  GI50: 0.0924 µM
  TGI: > 100 µM
DU-145 prostate
  GI50: 0.0761 µM
  TGI: > 100 µM
U251 CNS
  GI50: 0.0404 µM
  TGI: > 100 µM
SK-MEL-28 melanoma
  TGI: > 100 µM
MALME-3M melanoma
  GI50: 0.105 µM
  TGI: > 100 µM
NCI-H460 lung
  GI50: 0.0593 µM
  TGI: > 100 µM
UACC-257 melanoma
  GI50: 5.35 µM
  TGI: > 100 µM
COLO 205 colon
  GI50: 0.0696 µM
  TGI: 0.173 µM
